From patent US7517857B2, “Immune-modulating peptide” (POSCO, priority 2002, dated 2009)
One block for each molecule: values may come before it. Where a SMILES comes first, the peptide text is derived from it. Where no end group is shown, it is not given here. [ ]: non-standard residue; d: D form.

Legend:
human neutrophils = test: Superoxide generation in human neutrophils (cytochrome c reduction); assay type: cell-based; details: for O^2− (nmol/10^6 cells), superoxide generation: cytochrome c reduction
In short: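 Neutrophils isolated from donor leukocyte concentrates by dextran sedimentation, hypotonic erythrocyte lysis and lymphocyte separation gradient; 1×10^6 cells in RPMI 1640 preincubated 1 min at 37° C with 50 μM cytochrome c, then peptide added. Superoxide quantified as cytochrome c reduction, absorbance change at 550 nm over 5 min at 1-min intervals; ≥4 independent experiments.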

FPR [1] = molecular target: T1, FPR (Homo sapiens, UniProt P21462); test: ERK phosphorylation in FPR-expressing RBL-2H3 cells (immunoblot); assay type: cell-based; details: for ERKs phosphorylation/activation: 10 μM peptides 2 min (WKYMVm time course 1 μM)
T1 construct: expressed in transfected cells; host or cells: RBL-2H3 (rat basophilic leukemia) cells, G418-selected
T1 sequence (P21462 1-350): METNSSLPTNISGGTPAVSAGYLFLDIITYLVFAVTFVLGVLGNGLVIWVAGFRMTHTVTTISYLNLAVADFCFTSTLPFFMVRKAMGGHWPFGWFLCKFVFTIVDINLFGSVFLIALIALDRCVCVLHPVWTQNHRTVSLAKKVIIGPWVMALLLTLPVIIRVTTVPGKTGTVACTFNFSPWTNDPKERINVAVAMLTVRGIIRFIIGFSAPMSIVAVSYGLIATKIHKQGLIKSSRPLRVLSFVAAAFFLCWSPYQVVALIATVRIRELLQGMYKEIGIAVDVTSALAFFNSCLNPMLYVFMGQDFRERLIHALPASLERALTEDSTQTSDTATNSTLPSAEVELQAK
Protocol: Cultured RBL-2H3 cells were aliquoted into 2×10^6 cells and stimulated with the indicated concentrations of WKYMVm and the peptides of the present invention for the indicated lengths of time. FPR- or FPRL1-expressing RBL-2H3 cells were stimulated with 1 μM WKYMVm for various periods of time (FIG. 3A). Two cells were preincubated with a vehicle or 100 ng/ml of PTX (24 hr), 50 μM of LY294002 (15 min), 5 μM of GFX (15 min), 10 μM BAPTA/AM (60 min), or 50 μM PD98059 (60 min) prior to 1 μM of WKYMVm treatment (FIG. 3B). FPR- or FPRL1-expressing RBL2H3 cells were stimulated with 10 μM of the peptides of the present invention for 2 min or 5 min, respectively (FIG. 3C).
After stimulation, the cells were washed with serum-free RPMI and lysed in a lysis buffer (20 mM Hepes, pH 7.2, 10% glycerol, 150 mM NaCl, 1% Triton X-100, 50 mM NaF, 1 mM Na3VO4, 10 μg/ml leupeptin, 10 μg/ml aprotinin, and 1 mM phenylmethylsulfonyl fluoride). The detergent-insoluble materials were pelleted by centrifugation (12,000×g, 15 min, at 4° C.), and the soluble supernatant fraction was removed and stored at −80° C. or used immediately. Protein concentrations in the lysates were determined using the Bradford protein assay reagent.
Each sample ([…] of protein) was subjected to 10% SDS-PAGE and phosphorylated ERK was determined by an immunoblot analysis with an anti-phospho-ERK antibody. Protein samples were prepared for electrophoresis by addition of a concentrated sample buffer. The portions in the samples were then separated by an 10% SDS-polyacrylamide gel using the buffer system described by Laemmli (17).
Following the electrophoresis, a western blot analysis with an anti-ERK2 antibody was performed to confirm that the same amounts of samples were used for the experiments. The proteins were blotted onto nitrocellulose membranes. The nitrocellulose membranes were then blocked by incubation with TBS (Tris-buffered saline, 0.05% Tween-20) containing 5% non-fat dry milk. Subsequently, the membranes were incubated with anti-phospho-ERK antibody, anti-phospho-Akt antibody or anti-Akt antibody washed with TBS. For a PKC translocation assay, an antibody for PKC isozyme-specific was incubated. Antigen-antibody complexes were visualized after incubating the membrane with a 1:5000 diluted goat anti-rabbit IgG or goat anti-mouse IgG antibody coupled to horseradish peroxidase and using the enhanced chemiluminescence detection system.

FPR [2] = molecular target: T1, FPR; test: Displacement of 125I-labeled WKYMVm binding to FPR (FPR-expressing RBL-2H3 cells); details: FIG. 2A
Protocol: From the finding that some of the peptides (WKGMVm (SEQ ID NO: 1), WKRMVm (SEQ ID NO: 11), D-Met^6 substituted peptides) could not induce a cytosolic calcium increase, it was checked whether the peptides can bind to FPR or not. Displacement of ^125I-labeled WKYMVm binding to FPR or FPRL1 by the peptides was monitored. FPR-expressing RBL-2H3 cells were incubated with [^125I] WKYMVm in the absence or presence of increasing amounts of unlabeled WKYMVm or the peptides of SEQ ID NOs: 1 to 24.
A ligand binding analysis was performed as modified from the previous report (16). The radioiodinated WKYMVm (^125I-labeled) was purchased from NEN Lifesciences (Boston, Mass.). Briefly, FPR- or FPRL1-expressing RBL-2H3 cells were seeded into 1×10^5 cells per well of a 24-well plate and cultured overnight. After blocking the cells with a blocking buffer (33 mM HEPES, pH 7.5, 0.1% BSA in RPMI) for 2 hr, a single concentration of ^125I-labeled WKYMVm was added to cells with a binding buffer (PBS containing 0.1% BSA) in the absence or presence of 50 μM unlabelled peptides and incubated for 3 hr at 4° C. with continuous shaking. Then the samples were washed 5 times with ice-cold binding buffer, and 200 μl of lysis buffer (20 mM Tris, pH 7.5, 1% Triton X-100) was added to each well. After 20 min of lysis at room temperature, the lysates were collected. Bound ^125I-labeled WKYMVm was measured for radioactivity for a γ-ray counter.

ERKs phosphorylation/activation (FPR [1]): stimulated ERKs phosphorylation
Molecule: WKYMVE-NH2 [WKYMVE-NH2, Trp-Lys-Tyr-Met-Val-Glu-NH2]
O^2− (nmol/10^6 cells), superoxide generation (human neutrophils; peptide 100 nM): 5.0 ± 0.43 nmol/10^6 cells | O^2− (nmol/10^6 cells), superoxide generation (human neutrophils; peptide 10 μM): 33.6 ± 6.43 nmol/10^6 cells

ERKs phosphorylation/activation (FPR [1]): stimulated ERKs phosphorylation
Molecule: WKYMVR-NH2 [WKYMVR-NH2, Trp-Lys-Tyr-Met-Val-Arg-NH2]
O^2− (nmol/10^6 cells), superoxide generation (human neutrophils; peptide 100 nM): 16.3 ± 1.57 nmol/10^6 cells | O^2− (nmol/10^6 cells), superoxide generation (human neutrophils; peptide 10 μM): 44.8 ± 3.65 nmol/10^6 cells

ERKs phosphorylation/activation (FPR [1]): stimulated ERKs phosphorylation
Molecule: CSCC[C@H](NC(=O)CNC(=O)[C@H](CCCCN)NC(=O)[C@@H](N)Cc1c[nH]c2ccccc12)C(=O)N[C@H](C(=O)N[C@H](CCSC)C(N)=O)C(C)C [WKGMVm-NH2, Trp-Lys-Gly-Met-Val-D-Met-NH2] (H-WKGMV[dM]-NH2; N-terminus assumed)
O^2− (nmol/10^6 cells), superoxide generation (human neutrophils; peptide 100 nM): 14.2 ± 3.42 nmol/10^6 cells | O^2− (nmol/10^6 cells), superoxide generation (human neutrophils; peptide 10 μM): 37.6 ± 4.57 nmol/10^6 cells | inhibition of [^125I] WKYMVm binding (FPR [2]): inhibited binding of [^125I] WKYMVm in a concentration-dependent manner

Molecule: CSCC[C@H](NC(=O)[C@H](CCCNC(=N)N)NC(=O)[C@H](CCCCN)NC(=O)[C@@H](N)Cc1c[nH]c2ccccc12)C(=O)N[C@H](C(=O)N[C@H](CCSC)C(N)=O)C(C)C [WKRMVm-NH2, Trp-Lys-Arg-Met-Val-D-Met-NH2] (H-WKRMV[dM]-NH2; N-terminus assumed)
O^2− (nmol/10^6 cells), superoxide generation (human neutrophils; peptide 100 nM): 15.9 ± 2.48 nmol/10^6 cells | O^2− (nmol/10^6 cells), superoxide generation (human neutrophils; peptide 10 μM): 41.7 ± 8.32 nmol/10^6 cells | inhibition of [^125I] WKYMVm binding (FPR [2]): inhibited binding of [^125I] WKYMVm in a concentration-dependent manner | ERKs phosphorylation/activation (FPR [1]): stimulated ERKs phosphorylation

Molecule: CSCC[C@H](NC(=O)[C@H](Cc1ccc(O)cc1)NC(=O)[C@H](CCCCN)NC(=O)[C@@H](N)Cc1c[nH]c2ccccc12)C(=O)N[C@H](C(=O)N[C@H](CCSC)C(N)=O)C(C)C [WKYMVm-NH2, Trp-Lys-Tyr-Met-Val-D-Met-NH2, reference compound]
concentration showing the maximal activity on superoxide generation (human neutrophils; data not shown): 100 nM | O^2− (nmol/10^6 cells), superoxide generation (human neutrophils; peptide 100 nM): 37.3 ± 6.94 nmol/10^6 cells | O^2− (nmol/10^6 cells), superoxide generation (human neutrophils; peptide 100 nM, listed as wkymvm-NH2): 0 nmol/10^6 cells | O^2− (nmol/10^6 cells), superoxide generation (human neutrophils; peptide 10 μM): 39.0 ± 3.58 nmol/10^6 cells | O^2− (nmol/10^6 cells), superoxide generation (human neutrophils; peptide 10 μM, listed as wkymvm-NH2): 0 nmol/10^6 cells | inhibition of [^125I] WKYMVm binding (FPR [2]): inhibited binding of [^125I] WKYMVm in a concentration-dependent manner | time of maximal ERKs activity after peptide treatment (FPR [1]; 1 μM WKYMVm): 2 min | ERKs phosphorylation/activation (FPR [1]): induced transient activation of ERKs
